Results as given in patent publication US20050260219A1, “Carboxypeptidases B from anopheles gambiae. compositions comprising them, vaccine applications and use as therapeutical targets” (INSTITUT PASTEUR, priority 2004, published 2005).
Residues, ends and D or L forms follow the SMILES beside them. *: point of attachment. Bz = O=C(c1ccccc1)*

How the values were obtained:
[1] = test system: P. falciparum development in An. gambiae; assay: Effect of CPB substrates, free L-arginine and free L-lysine added to infected blood meal on P. falciparum development in An. gambiae; assay type: in vivo, Plasmodium falciparum; conditions: day 7 post feeding; for % Infected mosquitoes (number of dissected mosquitoes): pooled infections; for Mean number of oocysts (range): per positive midgut
Experimental: Asymptomatic village people (Senegal) or schoolchildren aged ≦10 years old (Cameroon) were mass-screened to detect parasite carriers as previously described (12). All participants were volunteers and the consent of the children's parents was obtained. The experimental protocols were approved by the Cameroonian and the Senegalese National Ethics Committees. Infections and control experiments were performed with the blood from gametocyte carrier volunteers and with the blood from parasite-free donors. Venous blood (10 ml) was collected in a heparin coated and pre-warmed tube, centrifuged for 5 minutes, 5,000 rpm, at 37° C. and the serum of the patient immediatly replaced with a prewarmed AB serum collected from donors not living in a malaria endemic country. For each experiment, batches of 60 nulliparous female mosquitoes (5 days old) starved from sugar for 24 h were fed for 10 minutes, using the artificial membrane feeding technique (24). Fully engorged females were maintained at the insectarium until dissection. For each experiment a control batch of mosquitoes was used to determine the rate and intensity of infection by oocyst detection on day 7 post feeding. These experiments were performed with a control providing an infection rate close to or above 50%. As described below these basic procedures for infecting An. gambiae with P. falciparum were modified to answer specific issues.
Mosquito infections were performed with the blood from volunteers harboring a low gametocytaemia, as described above, except that 10 μl of L-arginine (Sigma), L-lysine (Sigma), Hippuryl-Lysine (Sigma) or Hippuryl-Arginine (Sigma) at 10, 1, 0.1 and 0.01 mM in TrisHCl 50 mM pH 7.2 were added to 500 μl of P. falciparum infected blood just before mosquito feeding. As a control 10 μl of TrisHCl 50 mM pH 7.2 was added to the P. falciparum infected blood. Triplicate experiments using the blood of three different gametocyte carriers were performed except for L-lysine where only two experiments could be performed. Rate and intensity of infection were scored on day 7 after blood feeding by detection of oocysts on the mosquito midgut wall.
For the data presented in Table 4 (below), An. gambiae were fed on P. falciparum infected blood supplemented with CPB substrates: Hippuryl-Arginine or Hippuryl-Lysine. Proportion of infected mosquitoes and oocyst counts per positive midgut were determined on day 7 post feeding. For each substrate and concentration tested, data from three independent infections were pooled. […] The infected blood harboured few gametocytes resulting in a low infection rate in the control and thereby allowing the detection of the effect of carboxypeptidase substrates.
For the data presented in Table 5 (below), An. gambiae were fed on P. falciparum infected blood supplemented with L-arginine or L-lysine at three different concentrations. Proportion of infected mosquitoes and oocyst counts per positive midgut were determined on day 7 post feeding. Data were pooled from three independent infections for L-arginine experiments, and from two independent infections for L-lysine experiments.

recombinant CPBAg1 [2] = molecular target: T1, recombinant CPBAg1 (Anopheles gambiae, UniProt Q702G3); assay: Carboxypeptidase activity assay on recombinant CPBAg1 with di-peptide substrates; assay type: biochemical; conditions: for Enzyme activity: purified recombinant CPBAg1 from baculovirus, 1 mM substrate, 1 unit cleaves 1 μmol product/min
T1 sequence (Q702G3 20-423): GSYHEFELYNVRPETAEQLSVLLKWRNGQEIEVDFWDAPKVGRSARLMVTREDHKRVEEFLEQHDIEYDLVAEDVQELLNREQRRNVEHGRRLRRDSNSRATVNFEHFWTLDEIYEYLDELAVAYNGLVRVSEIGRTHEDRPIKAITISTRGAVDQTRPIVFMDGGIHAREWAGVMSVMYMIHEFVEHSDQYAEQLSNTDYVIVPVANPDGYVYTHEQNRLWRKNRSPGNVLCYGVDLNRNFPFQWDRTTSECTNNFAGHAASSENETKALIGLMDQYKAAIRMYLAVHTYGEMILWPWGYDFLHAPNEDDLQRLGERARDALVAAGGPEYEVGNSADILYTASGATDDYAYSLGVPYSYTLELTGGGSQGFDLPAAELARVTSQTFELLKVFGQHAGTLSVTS
Experimental: (§1) Carboxypeptidase activity was determined using the synthetic di-peptide substrates Hippuryl-Arginine (Hip-Arg), Hippuryl-Lysine (Hip-Lys) as carboxypeptidase B substrates and Hippuryl-Phenylalanine (Hip-Phe) as carboxypeptidase A substrate. All reagents were purchased from Sigma. Activities were assayed in 20 μl E buffer (100 mM NaCl/50 mM Hepes/100 μM ZnCl2 pH 7.2) containing 1 mM Hip-Arg, Hip-Lys or Hip-Phe. The reaction was initiated by adding an equal volume of His-tagged CPBAg1 (5 ng/μl in E buffer), incubated at 25° C. for 10-40 min, and stopped by the addition of 20 μl Ninhydrin reagent (Sigma, Lyon, France). The rate of the reaction was measured by estimating the amount of released amino acids using the ninhydrin procedure (60). One unit of enzyme activity was defined as μmol of amino acids released/min.
Estimation of Km and kcat was carried out after assays over a 500-fold range of Hip-Arg concentration (0.02-10 mM). Each concentration was assayed in triplicate. The kinetic parameters were derived from iterative non-linear least square fits of the Michaelis-Menten equation using the experimental data (61). Confidence limits for the fitted values were determined by 100 Monte Carlo iterations using the experimental standard deviations on individual measurements.
Activity of the purified recombinant CPBAg1 produced in baculovirus was assayed against the carboxypeptidase B di-peptide substrates Hippuryl-Arginine (Hip-Arg) and Hippuryl-Lysine (Hip-Lys) and the carboxypeptidase A di-peptide substrate Hippuryl-Phenylalanine (Hip-Phe). 1 unit cleaves 1 μmol product/min.

recombinant CPBAg1 [3] = molecular target: T1, recombinant CPBAg1; assay: Effect of inhibitors on CPBAg1 activity (Hip-Arg as substrate); assay type: biochemical; conditions: for Activity (%): relative to control without inhibitor
Experimental: as §1
Inhibitory effects of the chelating agent 1,10-phenantroline (Sigma, Lyon, France), and of the arginine analogue GEMSA (Guanidinoethylmercaptosuccinic acid, Fluka) on CPBAg1 activity were assayed as follows: different concentrations ([…]-1 mM) of inhibitors were preincubated at 25° C. for 30 min with the recombinant protein in E buffer before addition of Hip-Arg. Activity was measured as described above and was expressed as the percentage of activity relative to controls performed in absence of inhibitor.
Accordingly, CPBAg1 activity was inhibited by the active site-directed inhibitor GEMSA, which is an arginine analogue (Table 2). Activity of the purified recombinant CPBAg1 produced in the baculovirus was assayed after incubation with the zinc-carboxypeptidase inhibitor 1,10-phenantroline and the active site-directed inhibitor GEMSA, using Hyp-Arg as substrate. 100% activity corresponds to 1.1 and 0.8 unit/mg for 1,10-phenanatroline and GEMSA experiments, respectively.

Compound	% Infected mosquitoes (number of dissected mosquitoes) ([1]; 100 μM)	Mean number of oocysts (range) ([1]; 100 μM)	% Infected mosquitoes (number of dissected mosquitoes) ([1]; 1 mM)	Mean number of oocysts (range) ([1]; 1 mM)	Enzyme activity (recombinant CPBAg1 [2]) [unit/mg]	also measured
NCCCC[C@H](NC(=O)CNC(=O)c1ccccc1)C(=O)O [Hippuryl-Lysine] (Bz-Gly-Lys-OH)	41.1 (90) %	2.4 (1-6)	46.7 (92) %	2.5 (1-12)	0.24 ± 0.02	% Infected mosquitoes (number of dissected mosquitoes) ([1]; 10 mM): 23.8 (80) %; Mean number of oocysts (range) ([1]; 10 mM): 2.1 (1-6)
N=C(N)NCCC[C@H](N)C(=O)O [L-arginine]	38.4 (86) %	3.2 (1-13)	34.4 (64) %	5.3 (1-26)	–	% Infected mosquitoes (number of dissected mosquitoes) ([1]; 10 mM): 55.2 (58) %; Mean number of oocysts (range) ([1]; 10 mM): 5.2 (1-31)
NCCCC[C@H](N)C(=O)O [L-lysine]	42.1 (38) %	4.9 (1-15)	30.5 (36) %	8.3 (1-44)	–	% Infected mosquitoes (number of dissected mosquitoes) ([1]; 10 μM): 62.9 (35) %; Mean number of oocysts (range) ([1]; 10 μM): 8.2 (1-18)
O=C(CNC(=O)c1ccccc1)N[C@@H](Cc1ccccc1)C(=O)O [Hip-Phe, Hippuryl-Phenylalanine] (Bz-Gly-Phe-OH)	–	–	–	–	0	–
N=C(N)NCCC[C@H](NC(=O)CNC(=O)c1ccccc1)C(=O)O [Hippuryl-Arginine] (Bz-Gly-Arg-OH)	40.9 (88) %	2.1 (1-7)	28 (50) %	2.1 (1-8)	0.83 ± 0.01	% Infected mosquitoes (number of dissected mosquitoes) ([1]; 10 μM): 26.3 (80) %; Mean number of oocysts (range) ([1]; 10 μM): 2.3 (1-10); activity against Hip-Arg relative to Hip-Lys (recombinant CPBAg1 [2]; ratio of enzyme activities of Table 1): approximately 3.5 times
N=C(N)NCCSC(CC(=O)O)C(=O)O (stereo not drawn) [GEMSA, Guanidinoethylmercaptosuccinic acid]	–	–	–	–	–	activity at 0.1 µM (recombinant CPBAg1 [3]): 96 ± 2%; activity at 10 µM (recombinant CPBAg1 [3]): 41%; activity at 100 µM (recombinant CPBAg1 [3]): 20 ± 2%; activity at 1000 µM (recombinant CPBAg1 [3]): 7 ± 11%
c1cnc2c(c1)ccc1cccnc12 [1,10-phenantroline]	–	–	–	–	–	Activity (%) (recombinant CPBAg1 [3]; inhibitor 0.1 μM): 96 ± 2%; Activity (%) (recombinant CPBAg1 [3]; inhibitor 10 μM): 87 ± 8%; Activity (%) (recombinant CPBAg1 [3]; inhibitor 100 μM): 35 ± 5%; Activity (%) (recombinant CPBAg1 [3]; inhibitor 1000 μM): 24 ± 5%
